ChEMBL document CHEMBL1201862, “PubChem BioAssay data set” (2004)
Activity calls are given as the source filed them.

Experiments:
Wee1-like protein kinase = Wee1-like protein kinase (Homo sapiens, UniProt P30291); test: Navigating the Kinome. Panel member name: WEE1; type: functional
[1] = molecular target: Cell division cycle 7-related protein kinase (Homo sapiens, UniProt O00311); type: functional;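 note: value obtained from a kinome-wide kinase panel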
LIM domain kinase 1 = LIM domain kinase 1 (Homo sapiens, UniProt P53667); test: Navigating the Kinome. Panel member name: LIMK1; type: functional
[2] = (§1) Counterscreen for antagonists of the orexin 1 receptor (OX1R; HCRTR1): Fluorescence-based cell-based high throughput dose response assay to identify antagonists of the parental CHO cell line. [Related pubchem assays (depositor defined):AID434989, AID435008, AID463079, AID485270, AID492963, AID492964, AID492965, AID493232, AID504699, AID504701]; type: functional
[3] = molecular target: T1, Orexin/Hypocretin receptor type 1 (Homo sapiens, UniProt O43613); test: (§2) Fluorescence-based cell-based high throughput dose response assay for antagonists of the orexin 1 receptor (OX1R; HCRTR1). [Related pubchem assays (depositor defined):AID434989, AID435008, AID463079, AID485270, AID492963, AID492964, AID492965, AID493232, AID504717, AID504718]; type: functional
Orexin receptor type 2 [4] = molecular target: T2, Orexin receptor type 2 (Homo sapiens, UniProt O43614); test: Counterscreen assay for antagonists of the orexin 1 receptor (OX1R; HCRTR1): Homogeneous Time Resolved Fluorescence (HTRF)-based cell-based dose response assay for antagonists of the orexin 2 receptor (OX2R; HCRTR2), run by assay provider.; type: functional
Orexin receptor type 2 [5] = molecular target: T2, Orexin receptor type 2; test: Counterscreen assay for antagonists of the orexin 1 receptor (OX1R; HCRTR1): Fluorescence-based cell-based dose response assay for antagonists of the orexin 2 receptor (OX2R; HCRTR2), run by assay provider.; type: functional
CHO-K1 = test: as §1, with “Homogeneous time resolved fluorescence (HTRF)-based” for “Fluorescence-based”, “cell-based” for “cell-based high throughput”, “CHO-K1” for “CHO”; type: functional; conditions: Cricetulus griseus
[6] = molecular target: T1, Orexin/Hypocretin receptor type 1; test: as §2, with “Homogeneous Time Resolved Fluorescence (HTRF)-based” for “Fluorescence-based”; type: functional
Perilipin-1/ABHD5 = Perilipin-1/ABHD5 (Homo sapiens, UniProt O60240+Q8WTS1); test: Luminescence-based biochemical high throughput dose response assay for inhibitors of the interaction of the lipase co-activator protein, abhydrolase domain containing 5 (ABHD5) with perilipin-1 (PLIN1) (2K validation set). [Related pubchem assays (depositor defined):AID493027, AID493057]
[7] = molecular target: 1-acylglycerol-3-phosphate O-acyltransferase ABHD5/Perilipin-5 (Homo sapiens, UniProt Q00G26+Q8WTS1); test: Luminescence-based biochemical high throughput dose response assay for inhibitors of the interaction of the lipase co-activator protein, abhydrolase domain containing 5 (ABHD5) with perilipin-5 (MLDP; PLIN5) (2K validation set). [Related pubchem assays (depositor defined):AID493035, AID493241]
[8] = molecular target: Protein-arginine deiminase type-4 (Homo sapiens, UniProt Q9UM07); test: human PAD4 inhibitor potency, dose response, biochemical, fluorescence readout (AID 492970)
[9] = molecular target: Voltage-gated inwardly rectifying potassium channel KCNH2 (Homo sapiens, UniProt Q12809); conditions: Potency;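 note: confirmatory quantitative high-throughput screen measuring inhibition of hERG channel activity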
Protein RecA = molecular target: T3, Protein RecA (Mycobacterium tuberculosis, UniProt P9WHJ3); test: Fluorescence Cell-Free Homogeneous Dose Retest to Identify Inhibitors of RecA-Intein Splicing Activity. [Related pubchem assays (depositor defined):AID2097, AID2223, AID489010, AID492950]; type: functional
T3 sequence (P9WHJ3 whole entry): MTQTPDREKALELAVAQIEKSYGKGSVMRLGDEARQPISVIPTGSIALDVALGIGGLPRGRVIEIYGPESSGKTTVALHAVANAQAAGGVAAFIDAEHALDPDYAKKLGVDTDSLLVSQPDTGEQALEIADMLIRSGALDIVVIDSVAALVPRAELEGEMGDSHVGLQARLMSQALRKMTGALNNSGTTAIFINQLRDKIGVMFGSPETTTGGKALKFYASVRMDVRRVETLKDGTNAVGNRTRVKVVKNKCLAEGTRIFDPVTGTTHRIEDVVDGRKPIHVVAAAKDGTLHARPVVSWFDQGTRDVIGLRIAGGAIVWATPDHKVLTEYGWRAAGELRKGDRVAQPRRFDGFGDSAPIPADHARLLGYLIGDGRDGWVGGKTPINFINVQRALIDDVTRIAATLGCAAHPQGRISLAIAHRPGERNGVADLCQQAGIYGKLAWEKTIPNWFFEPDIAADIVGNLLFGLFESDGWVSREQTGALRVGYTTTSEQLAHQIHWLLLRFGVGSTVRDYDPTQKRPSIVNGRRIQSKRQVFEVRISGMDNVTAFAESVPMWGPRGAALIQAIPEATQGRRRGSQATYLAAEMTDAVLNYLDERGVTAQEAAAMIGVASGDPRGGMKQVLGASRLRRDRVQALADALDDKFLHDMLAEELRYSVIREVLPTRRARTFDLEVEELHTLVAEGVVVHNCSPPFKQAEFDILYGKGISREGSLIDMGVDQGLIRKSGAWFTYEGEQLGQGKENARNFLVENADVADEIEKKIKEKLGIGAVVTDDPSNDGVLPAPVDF

[10] = molecular target: T4, Replicative DNA helicase DnaB (Mycobacterium tuberculosis, UniProt P9WMR3); test: DnaB intein splicing inhibitors, dose response, biochemical, cell-free fluorescence (AID 449749); type: functional
T4 sequence (P9WMR3 whole entry): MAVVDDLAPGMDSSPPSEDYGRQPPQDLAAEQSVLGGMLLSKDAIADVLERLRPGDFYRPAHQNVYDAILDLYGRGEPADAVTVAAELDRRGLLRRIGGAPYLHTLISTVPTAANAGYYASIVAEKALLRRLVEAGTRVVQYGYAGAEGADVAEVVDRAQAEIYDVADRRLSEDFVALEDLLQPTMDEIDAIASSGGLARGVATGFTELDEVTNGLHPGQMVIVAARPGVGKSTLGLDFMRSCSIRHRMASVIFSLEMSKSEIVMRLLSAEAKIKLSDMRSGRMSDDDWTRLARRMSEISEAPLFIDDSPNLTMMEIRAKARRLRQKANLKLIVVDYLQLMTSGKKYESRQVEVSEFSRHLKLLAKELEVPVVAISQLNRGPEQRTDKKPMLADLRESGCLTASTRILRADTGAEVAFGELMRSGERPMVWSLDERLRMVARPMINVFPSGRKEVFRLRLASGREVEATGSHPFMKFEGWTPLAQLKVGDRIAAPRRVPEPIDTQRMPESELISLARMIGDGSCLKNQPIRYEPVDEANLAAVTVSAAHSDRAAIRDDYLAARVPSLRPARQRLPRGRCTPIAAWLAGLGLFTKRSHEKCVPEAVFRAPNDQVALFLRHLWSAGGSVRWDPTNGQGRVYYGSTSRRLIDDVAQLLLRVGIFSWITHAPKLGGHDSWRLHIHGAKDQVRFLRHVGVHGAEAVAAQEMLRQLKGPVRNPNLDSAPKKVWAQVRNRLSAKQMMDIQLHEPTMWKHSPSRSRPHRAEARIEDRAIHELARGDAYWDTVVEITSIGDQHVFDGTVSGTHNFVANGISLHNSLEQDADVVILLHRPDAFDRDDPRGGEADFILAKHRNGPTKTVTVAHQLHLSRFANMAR

Aurora kinase B = Aurora kinase B (Homo sapiens, UniProt Q96GD4); type: functional
[11] = molecular target: Vascular endothelial growth factor receptor 2 (Homo sapiens, UniProt P35968); type: functional
Aurora kinase A = Aurora kinase A (Homo sapiens, UniProt O14965); type: functional;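 note: value from the Navigating the Kinome kinase panel profiling, panel entry STK6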
[12] = THP-1 cell cytotoxicity, cytotoxicity control, set 4 (AID 504911); type: functional; conditions: Mycobacterium tuberculosis
[13] = Vero cell cytotoxicity, dose response, cytotoxicity control for M. tuberculosis growth inhibitor project, Vero cells, purified and synthesized compounds, set 4 (AID 504854); type: functional; conditions: Mycobacterium tuberculosis
[14] = molecular target: Death-associated protein kinase 3 (Homo sapiens, UniProt O43293); type: functional;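 note: measured as one member of a kinome-wide profiling panel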
[15] = molecular target: Vascular endothelial growth factor receptor 1 (Homo sapiens, UniProt P17948); type: functional;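 note: measured within a kinome-wide profiling panel, FLT1 as the panel member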
[16] = molecular target: Dual specificity tyrosine-phosphorylation-regulated kinase 1A (Homo sapiens, UniProt Q13627); type: functional;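 note: measured against DYRK1A as one member of a broad kinome profiling panel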
[17] = inhibitors of intracellular T. cruzi replication, confirmation, NIH3T3 host cells, beta-gal luminescence (AID 2044); type: functional, cell-based;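 note: intracellular parasites grown in NIH/3T3 mouse fibroblasts as host cells; luminescent beta-galactosidase reporter signal from transgenic T. cruzi replicating inside host cells; inhibitors lower the luminescence signal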
[18] = cytotoxicity toward NIH3T3 fibroblasts, dose response, counter-screen, cell-based, ATP luminescence, mouse fibroblasts (AID 2010); type: functional;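 note: cells exposed to compound for about 90 hours before reading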
Phospholipase A2 = Phospholipase A2 (Homo sapiens, UniProt P04054); type: functional;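 note: confirmatory dose-response counterscreen on phospholipase A2, testing hits that came from an ultra-high-throughput screen for ATG4B inhibitors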
Cysteine protease ATG4B = Cysteine protease ATG4B (Homo sapiens, UniProt Q9Y4P1); type: functional;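 note: Fluorescence-based dose-response confirmation assay measuring inhibition of ATG4B activity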
[19] = molecular target: T5, Corticotropin-releasing factor receptor 2/Corticotropin-releasing factor-binding protein (Homo sapiens, UniProt P24387+Q13324); test: activators of CRF receptor 2 with binding protein – uHTS hits, confirmation (AID 602473); type: functional; conditions: read-out: EC50_Mean
T5 sequence (Q13324 whole entry): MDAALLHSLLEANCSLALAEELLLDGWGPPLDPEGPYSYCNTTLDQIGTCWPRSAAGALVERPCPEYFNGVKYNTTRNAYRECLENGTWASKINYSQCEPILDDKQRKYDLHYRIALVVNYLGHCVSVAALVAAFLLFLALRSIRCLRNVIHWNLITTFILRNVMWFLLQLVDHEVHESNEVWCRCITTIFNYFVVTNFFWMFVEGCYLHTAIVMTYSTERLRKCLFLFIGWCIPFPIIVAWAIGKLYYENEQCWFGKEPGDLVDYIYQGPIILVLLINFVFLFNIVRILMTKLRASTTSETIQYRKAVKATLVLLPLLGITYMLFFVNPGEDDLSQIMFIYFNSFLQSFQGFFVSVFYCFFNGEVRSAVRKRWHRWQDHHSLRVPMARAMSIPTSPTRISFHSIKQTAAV
T5 sequence (P24387 whole entry): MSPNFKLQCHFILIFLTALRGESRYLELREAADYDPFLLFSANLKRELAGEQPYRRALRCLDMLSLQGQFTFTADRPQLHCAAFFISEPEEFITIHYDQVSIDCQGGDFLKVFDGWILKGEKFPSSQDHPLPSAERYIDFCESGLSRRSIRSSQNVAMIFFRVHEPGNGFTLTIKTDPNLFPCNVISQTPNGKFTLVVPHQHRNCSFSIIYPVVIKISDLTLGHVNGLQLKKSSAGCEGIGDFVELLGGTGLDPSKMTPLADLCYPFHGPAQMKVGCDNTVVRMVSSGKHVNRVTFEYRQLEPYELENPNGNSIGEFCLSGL

[20] = Luminescence Cell-Based Dose Confirmation HTS to Identify Inhibitors of Polyadenylation.; type: functional
[21] = CRF-BP/CRF-R2 complex antagonists, dose response, cell-based, uHTS hits, 384-well (AID 651639); type: functional, Homo sapiens; conditions: read-out: IC50_Mean
Genome polyprotein = Genome polyprotein (dengue virus type 2, UniProt P29990); test: Dengue-2 NS5 methyltransferase inhibitors, primary screen, biochemical, confirmation dose response (AID 588689); type: functional
[22] = molecular target: T5, Corticotropin-releasing factor receptor 2/Corticotropin-releasing factor-binding protein; test: Dose Response confirmation of uHTS hits for small molecule antagonists of the CRF-binding protein and CRF-R2 receptor complex.; type: functional; conditions: read-out: IC50_Mean
Vero = Vero cell cytotoxicity, cytotoxicity control for flavivirus capping enzyme inhibitors (AID 588742); type: functional; conditions: Chlorocebus sabaeus
[23] = molecular target: Glycogen synthase kinase-3 beta (Homo sapiens, UniProt P49841); test: Inhibition of Human GSK-3 beta Activity Measured in Biochemical System Using Microfluidics - 2063-05_Inhibitor_Dose_DryPowder_Activity_Set2. [Related pubchem assays (depositor defined):AID2709]
[24] = molecular target: Glycogen synthase kinase-3 alpha (Homo sapiens, UniProt P49840); test: Inhibition of Human GSK-3 alpha Activity Measured in Biochemical System Using Microfluidics - 2063-06_Inhibitor_Dose_DryPowder_Activity_Set2. [Related pubchem assays (depositor defined):AID2709]

T1 sequence (O43613 whole entry): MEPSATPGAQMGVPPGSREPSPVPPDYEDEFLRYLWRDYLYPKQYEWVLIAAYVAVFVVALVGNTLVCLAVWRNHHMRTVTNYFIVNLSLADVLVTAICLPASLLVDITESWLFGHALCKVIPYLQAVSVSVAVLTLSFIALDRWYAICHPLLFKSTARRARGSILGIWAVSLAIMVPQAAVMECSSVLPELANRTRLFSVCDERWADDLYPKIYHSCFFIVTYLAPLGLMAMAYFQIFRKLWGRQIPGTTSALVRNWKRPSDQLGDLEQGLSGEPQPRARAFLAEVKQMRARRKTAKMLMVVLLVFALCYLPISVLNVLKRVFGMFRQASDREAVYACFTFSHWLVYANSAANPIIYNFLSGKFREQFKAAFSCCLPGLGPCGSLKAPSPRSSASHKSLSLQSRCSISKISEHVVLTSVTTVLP
T2 sequence (O43614 whole entry): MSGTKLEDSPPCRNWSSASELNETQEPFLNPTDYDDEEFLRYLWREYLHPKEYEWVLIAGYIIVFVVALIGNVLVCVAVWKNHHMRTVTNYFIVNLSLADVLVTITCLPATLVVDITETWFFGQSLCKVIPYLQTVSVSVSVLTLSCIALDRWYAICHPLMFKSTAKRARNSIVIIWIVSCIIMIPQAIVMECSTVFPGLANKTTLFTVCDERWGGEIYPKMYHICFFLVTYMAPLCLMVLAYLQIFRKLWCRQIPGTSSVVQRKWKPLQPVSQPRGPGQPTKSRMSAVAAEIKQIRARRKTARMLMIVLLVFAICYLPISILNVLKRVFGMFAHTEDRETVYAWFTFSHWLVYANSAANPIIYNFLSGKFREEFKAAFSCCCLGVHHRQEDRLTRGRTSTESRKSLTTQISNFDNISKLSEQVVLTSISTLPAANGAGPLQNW
Protein-arginine deiminase type-4, sequence (Q9UM07 whole entry): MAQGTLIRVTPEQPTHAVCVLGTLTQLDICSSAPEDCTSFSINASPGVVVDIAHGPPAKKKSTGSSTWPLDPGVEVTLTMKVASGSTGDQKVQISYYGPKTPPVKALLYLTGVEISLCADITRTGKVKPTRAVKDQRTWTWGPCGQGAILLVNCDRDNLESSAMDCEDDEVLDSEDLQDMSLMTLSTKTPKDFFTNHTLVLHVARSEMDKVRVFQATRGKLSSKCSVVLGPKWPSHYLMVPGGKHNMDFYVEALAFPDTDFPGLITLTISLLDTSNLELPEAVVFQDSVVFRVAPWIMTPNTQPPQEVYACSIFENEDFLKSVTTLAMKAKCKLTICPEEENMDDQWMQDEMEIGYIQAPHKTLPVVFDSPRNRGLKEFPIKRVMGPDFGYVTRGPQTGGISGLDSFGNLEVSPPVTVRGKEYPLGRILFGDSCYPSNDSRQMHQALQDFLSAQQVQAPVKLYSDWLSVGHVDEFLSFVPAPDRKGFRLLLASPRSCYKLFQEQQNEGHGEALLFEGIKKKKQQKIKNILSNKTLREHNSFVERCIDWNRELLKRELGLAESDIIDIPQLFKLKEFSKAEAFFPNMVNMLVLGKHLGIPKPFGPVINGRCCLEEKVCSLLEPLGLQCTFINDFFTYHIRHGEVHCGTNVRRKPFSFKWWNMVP
Death-associated protein kinase 3, sequence (O43293 whole entry): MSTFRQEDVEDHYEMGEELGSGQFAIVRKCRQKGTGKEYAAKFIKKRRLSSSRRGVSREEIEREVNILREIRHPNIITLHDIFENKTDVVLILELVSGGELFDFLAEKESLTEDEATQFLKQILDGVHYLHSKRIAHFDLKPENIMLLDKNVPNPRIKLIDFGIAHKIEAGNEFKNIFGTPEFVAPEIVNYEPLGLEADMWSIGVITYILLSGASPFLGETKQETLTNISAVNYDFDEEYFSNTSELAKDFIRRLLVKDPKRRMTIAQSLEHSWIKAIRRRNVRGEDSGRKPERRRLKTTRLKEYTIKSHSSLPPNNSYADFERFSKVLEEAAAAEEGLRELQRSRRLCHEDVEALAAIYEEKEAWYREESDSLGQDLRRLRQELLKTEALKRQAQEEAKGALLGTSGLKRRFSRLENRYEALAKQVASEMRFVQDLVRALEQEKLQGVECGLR
LIM domain kinase 1, sequence (P53667 whole entry, the tested form may be a part): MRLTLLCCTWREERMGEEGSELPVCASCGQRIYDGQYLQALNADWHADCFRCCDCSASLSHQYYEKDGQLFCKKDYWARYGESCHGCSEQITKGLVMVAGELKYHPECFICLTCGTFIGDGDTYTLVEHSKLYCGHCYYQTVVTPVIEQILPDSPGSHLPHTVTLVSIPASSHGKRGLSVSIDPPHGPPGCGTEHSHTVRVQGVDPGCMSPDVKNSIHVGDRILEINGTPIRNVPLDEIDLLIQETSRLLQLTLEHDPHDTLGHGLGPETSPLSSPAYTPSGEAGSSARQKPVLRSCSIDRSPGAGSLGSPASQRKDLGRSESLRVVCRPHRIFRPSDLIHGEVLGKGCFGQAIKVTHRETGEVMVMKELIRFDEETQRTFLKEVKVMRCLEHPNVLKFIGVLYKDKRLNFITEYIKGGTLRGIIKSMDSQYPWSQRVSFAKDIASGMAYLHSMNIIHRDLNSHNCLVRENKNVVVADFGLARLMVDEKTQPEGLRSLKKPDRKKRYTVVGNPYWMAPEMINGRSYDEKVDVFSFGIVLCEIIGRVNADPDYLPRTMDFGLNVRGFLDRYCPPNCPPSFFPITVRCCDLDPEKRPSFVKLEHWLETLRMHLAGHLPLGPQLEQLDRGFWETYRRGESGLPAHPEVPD
Perilipin-1/ABHD5, sequence (Q8WTS1 whole entry, the tested form may be a part): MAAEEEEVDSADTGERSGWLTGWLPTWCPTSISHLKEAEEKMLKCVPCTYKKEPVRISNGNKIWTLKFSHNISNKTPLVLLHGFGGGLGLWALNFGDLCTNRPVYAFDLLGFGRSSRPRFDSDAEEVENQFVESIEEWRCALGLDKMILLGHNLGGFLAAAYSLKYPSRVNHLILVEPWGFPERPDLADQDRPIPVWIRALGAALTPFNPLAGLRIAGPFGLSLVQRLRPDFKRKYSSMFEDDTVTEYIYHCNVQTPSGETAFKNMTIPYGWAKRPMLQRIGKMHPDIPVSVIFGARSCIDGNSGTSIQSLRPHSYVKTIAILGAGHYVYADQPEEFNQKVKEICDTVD
Perilipin-1/ABHD5, sequence (O60240 whole entry, the tested form may be a part): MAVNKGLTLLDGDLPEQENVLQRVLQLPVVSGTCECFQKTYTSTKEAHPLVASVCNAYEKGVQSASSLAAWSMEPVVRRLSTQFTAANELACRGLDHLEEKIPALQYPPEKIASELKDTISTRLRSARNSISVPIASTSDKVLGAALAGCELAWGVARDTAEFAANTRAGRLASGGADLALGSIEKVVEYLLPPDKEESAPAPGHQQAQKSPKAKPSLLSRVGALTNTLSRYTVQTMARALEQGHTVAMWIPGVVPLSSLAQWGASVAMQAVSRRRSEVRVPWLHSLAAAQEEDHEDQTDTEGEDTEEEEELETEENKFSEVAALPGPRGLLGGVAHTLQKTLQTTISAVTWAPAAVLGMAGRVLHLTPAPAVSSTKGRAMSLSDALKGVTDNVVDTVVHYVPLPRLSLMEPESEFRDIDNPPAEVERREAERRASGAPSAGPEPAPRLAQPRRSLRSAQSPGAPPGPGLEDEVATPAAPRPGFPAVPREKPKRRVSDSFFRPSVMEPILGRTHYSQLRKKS
Genome polyprotein, sequence (P29990 2492-3391 limits assumed): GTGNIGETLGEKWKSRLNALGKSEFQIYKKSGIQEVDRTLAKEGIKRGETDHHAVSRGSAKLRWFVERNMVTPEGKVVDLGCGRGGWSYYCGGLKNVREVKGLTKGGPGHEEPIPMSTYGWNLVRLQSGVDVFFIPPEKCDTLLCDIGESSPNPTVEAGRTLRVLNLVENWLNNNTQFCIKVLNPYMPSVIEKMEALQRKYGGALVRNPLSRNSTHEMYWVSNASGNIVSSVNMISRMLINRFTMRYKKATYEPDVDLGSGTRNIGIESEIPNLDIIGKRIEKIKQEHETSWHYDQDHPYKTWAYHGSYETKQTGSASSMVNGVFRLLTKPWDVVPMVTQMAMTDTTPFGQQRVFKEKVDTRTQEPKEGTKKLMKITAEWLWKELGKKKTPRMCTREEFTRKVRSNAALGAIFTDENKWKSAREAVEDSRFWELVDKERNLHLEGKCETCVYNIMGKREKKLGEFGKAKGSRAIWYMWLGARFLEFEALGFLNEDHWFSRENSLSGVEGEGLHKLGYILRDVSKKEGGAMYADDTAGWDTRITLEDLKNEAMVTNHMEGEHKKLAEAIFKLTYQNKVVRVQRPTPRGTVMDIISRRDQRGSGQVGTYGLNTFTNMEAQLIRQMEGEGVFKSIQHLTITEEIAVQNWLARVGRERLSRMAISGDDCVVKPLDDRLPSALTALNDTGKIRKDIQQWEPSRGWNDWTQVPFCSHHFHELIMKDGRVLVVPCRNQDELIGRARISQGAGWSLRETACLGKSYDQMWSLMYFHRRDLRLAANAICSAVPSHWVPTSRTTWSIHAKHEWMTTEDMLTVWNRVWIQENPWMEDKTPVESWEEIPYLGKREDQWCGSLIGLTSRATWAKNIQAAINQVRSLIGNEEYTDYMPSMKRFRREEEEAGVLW
1-acylglycerol-3-phosphate O-acyltransferase ABHD5/Perilipin-5, sequence (Q00G26 whole entry, the tested form may be a part): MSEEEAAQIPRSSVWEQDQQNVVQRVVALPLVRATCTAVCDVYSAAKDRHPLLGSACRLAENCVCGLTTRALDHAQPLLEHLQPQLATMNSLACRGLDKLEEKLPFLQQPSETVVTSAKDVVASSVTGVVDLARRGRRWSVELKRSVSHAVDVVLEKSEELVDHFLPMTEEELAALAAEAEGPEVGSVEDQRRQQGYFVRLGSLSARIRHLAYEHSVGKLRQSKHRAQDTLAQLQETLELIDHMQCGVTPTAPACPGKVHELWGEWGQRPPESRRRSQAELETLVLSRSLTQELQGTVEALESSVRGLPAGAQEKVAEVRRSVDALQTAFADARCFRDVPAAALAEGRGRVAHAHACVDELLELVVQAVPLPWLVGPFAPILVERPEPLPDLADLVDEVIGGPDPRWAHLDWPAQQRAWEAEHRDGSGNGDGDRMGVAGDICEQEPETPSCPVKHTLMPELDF
1-acylglycerol-3-phosphate O-acyltransferase ABHD5/Perilipin-5, sequence (Q8WTS1 whole entry, the tested form may be a part): as the sequence (Q8WTS1 whole entry, the tested form may be a part) above

## Fc1ccc(Nc2ncnc(Nc3ccc4[nH]ncc4c3)n2)cc1
Wee1-like protein kinase
  Ki: > 3.16 µM (inactive)
[1]
  Ki: 0.126 µM (active)

## CCc1ccc(NC(=O)c2cnn3c(-c4ccccc4)ccnc23)cc1
LIM domain kinase 1
  Ki: 3.16 µM (active)

## Cc1ccc([C@@H]2CC=C(C(=O)O)[C@H](c3cccc(Cl)c3)N2S(=O)(=O)c2ccccc2C)cc1
[2]
  IC50: 18.7 µM (inactive)
[3]
  IC50: 4.6 µM (active)
Orexin receptor type 2 [4]
  IC50: 0.67 µM (active)
Orexin receptor type 2 [5]
  IC50: 3.9 µM (active)
CHO-K1
  IC50: > 66.2 µM (inactive)
[6]
  IC50: 0.601 µM (active)

## Cc1ccc(S(=O)(=O)N[C@@H](Cc2ccccc2)C(=O)CCl)cc1 [TPCK]
Perilipin-1/ABHD5
  IC50: 1.87 µM (active)
[7]
  IC50: 1.9 µM (active)
[8]
  IC50: 13 µM (inactive)
[9]
  AC50: 12.6 µM (inconclusive)
Protein RecA
  EC50: 0.712 µM (active)
[10]
  AC50: 2.03 µM (active)

## CCS(=O)(=O)Nc1ccc2c(c1)C(=NO)c1ccccc1-2
Aurora kinase B
  Ki: 0.0316 µM (active)
[11]
  Ki: 3.16 µM (active)
Aurora kinase A
  Ki: 0.631 µM (active)

## O=C(CSc1nc2ccccc2c(=O)[nH]1)NC1CCCC1
[12]
  CC50: > 100 µM (active)
[13]
  CC50: > 100 µM (active)

## O=c1sn(-c2ccc3c(c2)OCO3)c(=O)n1Cc1ccccc1
[14]
  Ki: 3.16 µM (active)
[15]
  Ki: 2 µM (active)
[16]
  Ki: 1.26 µM (active)

## CC(C)C[C@H](NC(=O)OC(C)(C)C)C(=O)N/N=C/C1=Cc2ccccc2OC1C (stereo not given in full)
[17]
  EC50: 3.34 µM (active)
[18]
  EC50: > 60 µM (not active)
Phospholipase A2
  IC50: 15.4 µM (active)
Cysteine protease ATG4B
  IC50: 37.1 µM (inactive)

## O=C1S/C(=C\c2ccc(O)c([N+](=O)[O-])c2)C(=O)N1c1ccccc1Cl
[19]
  EC50: > 53 µM (inactive)
[20]
  EC50: > 120 µM (not active)
[21]
  IC50: > 20 µM (inactive)
Genome polyprotein
  IC50: 40.6 µM (active)
[22]
  IC50: 24.4 µM (active)
Vero
  CC50: > 40 µM (active)

## O=C(Nc1ccsc1C(=O)NC1CCCCC1)c1ccc(F)cc1
[23]
  AC50: 6.28 µM (active)
[24]
  AC50: 24.9 µM (active)
